Test results reported in patent EP1046401A2, “Fatty acid derivative labelled with a radioactive transition metal” (NIHON MEDI-PHYSICS Co., Ltd., priority 1999, dated 2000).

Tests used:
liver slice [1] = assay: Determination of the metabolites by in vitro test (liver slice, reversed phase HPLC); format: in vitro ADME, rat; conditions: 2-bromooctanoic acid added as inhibitor for the β-oxidation, liver slice incubation
Method: (§1) Under anesthetized, a rat was subjected to celiotomy and bleeded by perfusion via the portal vein with 20 mM of tris-HCl buffer solution (containing 100 mM of potassium chloride, 5 mM of magnesium chloride, 5 mM of potassium dihydrogen phosphate, pH 7.4) which is saturated with O2/CO2 (95/5) gas. Then, the liver was excised and pieces of liver slice having the thickness of 300 µm were prepared by using Stadie, Riggs type of slicer (manufactures by NATSUME SEISAKUSHO). After weighing, each pieces of liver slices were divided into two groups. […] The samples were analyzed by reversed phase HPLC under the same conditions employed in Determination of metabolites by in vivo test. Survival rate of the cells in the liver slice sample used in the test was determined by measuring the activity of lactic acid dehydrogenase (LDH) leaked into the culture medium. […]
In conducting the in vitro experiment for determining the metabolite more than 90% of the radioactivity in liver homogenate was extracted.
21.2 ± 3.0% of the whole radioactivity was eluted at the fraction retained at 17 minutes. […]

liver slice [2] = assay: Survival of cells in the liver slice by lactic acid dehydrogenase (LDH) leaked into the medium; format: cell-based, rat; conditions: inhibition group (2-bromooctanoic acid 100 µM), at the termination point of experiments; no significant difference from control group
Method: as §1, with “groups. One is inhibiting group which was preincubated in 20mM tris-HCl buffer solution at 37°C for 5 minutes, in the presence of 2-bromooctanoic acid (the final concentration: 100 µM) as β-oxidation inhibitor, and another one is control group which was preincubated in 20 mM tris-HCl buffer solution at 37°C for 5 minutes, without the inhibitor. Next, [^99mTc]MAMA-HA (3.7 MBq) was added, and incubation was carried out under bubbling O2/CO2 (95/5) gas at 37°C for 60 minutes with shaking 60 times per minute.” for “groups.”

CCCCCCC(Br)C(=O)O (centres unmarked) [2-bromooctanoic acid]
formation of [^99mTc]MAMA-BA from [^99mTc]MAMA-HA (liver slice [1]): inhibited completely
LDH activities (liver slice [2]): 3,285 ± 367 IU/L
